Source: patent publication US10047076B2, “Halogen-substituted compounds” (BAYER CROPSCIENCE AKTIENGESELLSCHAFT, priority 2014, dated 2018)

What was measured:
[1] = log P determination by HPLC on reversed-phase column (C18), EEC Directive 79/831 Annex V.A8, acidic (formic acid); type: physicochemical; settings: HPLC method a), acetonitrile/water with formic acid
Description: ^1 The stated mass is the peak of the isotope pattern of the [M+H]^+ ion of the highest intensity; if the [M-H]^- ion was detected, the stated mass is identified with ^2. ^2 The stated mass is the peak of the isotope pattern of the [M-H]^- ion of the highest intensity. ^a) Note regarding the determination of the log P values and mass detection: The determination of the given log P values was carried out in accordance with EEC Directive 79/831 Annex V.A8 by HPLC (High Performance Liquid Chromatography) on a reversed-phase column (C18). […] Mass detection is effected by means of an […] system. ^b) Note regarding the determination of the retention time and mass detection: The stated retention times were determined on a reversed-phase column (C18) Shimadzu LCMS 2020; 50*3.0 Shimadzu shim-pack XR-ODS 2.2 micron; mobile phase A: water (0.05% TFA); mobile phase B: acetonitrile; linear gradient from 5% acetonitrile to 95% acetonitrile in 6.00 min, then 95% acetonitrile for a further 1.1 min; oven temperature 40° C.; flow rate: 1.0 ml/min. ^c) Note regarding the determination of the retention time and mass detection: Instrument: Waters ACQUITY SQD UPLC system; column. Waters Acquity UPLC HSS T3 1.8μ 50×1 mm; mobile phase A: 1 l of water+0.25 ml of 99% strength formic acid, mobile phase B: 1 l of acetonitrile+0.25 ml of 99% strength formic acid; gradient: 0.0 min 90% A→1.2 min 5% A→2.0 min 5% A oven: 50° C.; flow rate: 0.40 ml/min; UV detection: 208-400 nm. ^d) Note regarding the determination of the retention time and mass detection: […] The determination of the given log P values was carried out in accordance with EEC Directive 79/831 Annex V.A8 by HPLC (High Performance Liquid Chromatography) on a reversed-phase column (C18). […] Mass detection is effected by means of an […] system.

[2] = system: Musca domestica; assay: Musca domestica test; type: in vivo; settings: 100 ppm, adult houseflies, after 2 days
From the text: (§1) Solvent: dimethyl sulphoxide
Vessels containing a sponge treated with sugar solution and the active compound preparation of the desired concentration are populated with 10 adult houseflies (Musca domestica).

[3] = system: Boophilus microplus; assay: Boophilus microplus injection test; type: in vivo; settings: 20 μg/animal, engorged adult female ticks, after 7 days
Description: as §1
1 μl of the active compound solution is injected into the abdomen of 5 engorged adult female cattle ticks (Boophilus microplus). The animals are transferred into dishes and kept in a climate-controlled room.
(§2) Efficacy is assessed after 7 days by laying of fertile eggs. Eggs which are not visibly fertile are stored in a climate-controlled cabinet until the larvae hatch after about 42 days. An efficacy of 100% means that none of the ticks has laid any fertile eggs; 0% means that all the eggs are fertile.

[4] = system: Spodoptera frugiperda; assay: Spodoptera frugiperda spray test; type: in vivo; settings: caterpillars on maize leaf discs, after 7 days
From the text: (§3) Solvent: 78.0 parts by weight of acetone

[5] = system: Ctenocephalides felis; assay: Ctenocephalides felis oral test; type: in vivo; settings: 100 ppm in citrated cattle blood, after 2 days
From the text: as §1
Dilution with citrated cattle blood gives the desired concentration.
About 20 unfed adult cat fleas (Ctenocephalides felis) are placed into a chamber which is closed at the top and bottom with gauze. A metal cylinder whose bottom end is closed with parafilm is placed onto the chamber. The cylinder contains the blood/active compound preparation, which can be imbibed by the fleas through the parafilm membrane.

[6] = system: Lucilia cuprina; assay: Lucilia cuprina test; type: in vivo; settings: 100 ppm, L1 larvae, after 2 days
Description: as §1
About 20 L1 larvae of the Australian sheep blowfly (Lucilia cuprina) are transferred into a test vessel containing minced horsemeat and the active compound preparation of the desired concentration.
After 2 days, the kill in % is determined.

[7] = system: Phaedon cochleariae; assay: Phaedon cochleariae spray test; settings: larvae on Chinese cabbage leaf discs, after 7 days
[8] = system: Ctenocephalides felis; assay: Ctenocephalides felis in vitro contact test with adult cat fleas; type: in vivo; settings: application rate 5 μg/cm^2 (500 g/ha), after 48 h, adult cat fleas dead or moribund
Description: (§4) For the coating of the test tubes, 9 mg of active compound are first dissolved in 1 ml of acetone p.a. and then diluted to the desired concentration with acetone p.a. 250 μl of the solution are distributed homogeneously on the inner walls and the base of a 25 ml test tube by turning and rocking on an orbital shaker (rocking rotation at 30 rpm for 2 h). With 900 ppm active compound solution and internal surface 44.7 cm^2, given homogeneous distribution, an area-based dose of 5 μg/cm^2 is achieved.
After the solvent has evaporated off, the tubes are populated with 5-10 adult cat fleas (Ctenocephalides felis), sealed with a perforated plastic lid and incubated in a horizontal position at room temperature and ambient humidity. After 48 h, efficacy is determined. To this end, the test tubes are stood upright and the fleas are knocked to the base of the tube. Fleas which remain motionless at the base or move in an uncoordinated manner are considered to be dead or moribund.
100% efficacy means that all the fleas were dead or moribund. 0% efficacy means that no fleas were harmed.

[9] = system: Amblyomma hebraeum; assay: Amblyomma hebaraeum test (AMBYHE), tick nymphs immersion; type: in vivo; settings: 100 ppm, after 42 days
Description: as §1
To produce a suitable active compound formulation, 10 mg of active compound are mixed with 0.5 ml of dimethyl sulphoxide, and the concentrate is diluted with water to the desired concentration.
Tick nymphs (Amblyomma hebraeum) are placed into perforated plastic beakers and immersed in the desired concentration for one minute. The ticks are transferred on filter paper into a Petri dish and stored in a climate-controlled cabinet.

[10] = system: cattle ticks (Boophilus microplus) Parkhurst strain, SP-resistant; assay: Boophilus microplus dip test; type: in vivo; settings: 100 ppm, engorged adult female ticks, after 7 days
Description: Test animals: cattle ticks (Boophilus microplus) Parkhurst strain, SP-resistant
as §1
10 mg of active compound are dissolved in 0.5 ml of dimethyl sulphoxide. For the purpose of producing a suitable formulation, the active compound solution is diluted with water to the concentration desired in each case.
This active compound preparation is pipetted into tubes. 8-10 engorged adult female cattle ticks (Boophilus microplus) are transferred into a further tube with holes. The tube is immersed into the active compound preparation, and all the ticks are completely wetted. After the liquid has run out, the ticks are transferred on filter discs into plastic dishes and stored in a climate-controlled room.
as §2

[11] = system: Tetranychus urticae; assay: Tetranychus urticae spray test, OP-resistant (bean leaf discs); type: in vivo; settings: after 6 days
Description: as §3
After 6 days, the efficacy in % is determined.

[12] = system: Rhipicephalus sanguineus; assay: Rhipicephalus sanguineus in vitro contact test with adult brown dog ticks; type: in vivo; settings: after 48 h, adult ticks dead or moribund
Description: as §4
After the solvent has evaporated off, the tubes are populated with 5-10 adult dog ticks (Rhipicephalus sanguineus), sealed with a perforated plastic lid and incubated in a horizontal position in the dark at room temperature and ambient humidity. After 48 h, efficacy is determined. To this end, the ticks are knocked to the floor of the tube and incubated on a hotplate at 45-50° C. for not more than 5 min. Ticks which remain motionless on the floor or move in such an uncoordinated manner that they are unable to deliberately avoid the heat by climbing upwards are considered to be dead or moribund.
An efficacy of 100% means that all the ticks were dead or moribund. 0% efficacy means that none of the ticks had been harmed.

[13] = application rate 5 μg/cm^2 (500 g/ha)

Row | chromatographic logP [1] | SMILES | logP [1] | efficacy (kill in %) [2] [%] | efficacy (laying of fertile eggs) [3] [%] | efficacy ([4]; 500 g/ha) [%] | efficacy (kill in %) [5] [%] | efficacy (kill in %) [6] [%] | efficacy ([7]; 500 g/ha) [%] | efficacy [8] [%] | efficacy (kill in %) [9] [%] | efficacy ([4]; 100 g/ha) [%] | efficacy (laying of fertile eggs) [10] [%] | efficacy ([11]; 100 g/ha) [%] | efficacy ([7]; 100 g/ha) [%] | efficacy ([11]; 500 g/ha) [%] | efficacy [12, 13] [%] | efficacy ([12]; application rate 1 μg/cm^2 (100 g/ha)) [%]
1 | – | Cn1nc(C(F)(F)C(F)(F)F)c(C(F)(F)F)c1-c1nc(-c2ccc(Cl)c(C(=O)NC3CC3)c2)no1 [Ibf-3] | 4.26 | 80 | 100 | 100 | 100 | 100 | 100 | – | – | – | – | – | – | – | – | –
2 | 4.02 | Cn1nc(C(F)(F)C(F)(F)F)c(C(F)(F)F)c1-c1coc(-c2ccc(Cl)c(C(=O)NC3(C#N)CC3)c2)c1 [Iac-1, 2-chloro-N-(1-cyanocyclopropyl)-5-{4-[1-methyl-3-(pentafluoroethyl)-4-(trifluoromethyl)-1H-pyrazol-5-yl]-2-furyl}benzamide] | – | 100 | 100 | – | 100 | 100 | – | 100 | 100 | 100 | 100 | 100 | 100 | – | – | –
3 | – | CCn1nc(-c2ccc(Cl)c(C(=O)NC3CC3)c2)nc1-c1c(C(F)(F)F)c(C(F)(F)C(F)(F)F)nn1C [Ibg-5] | 4.09 | – | – | – | – | – | 100 | – | – | – | – | – | – | 90 | – | –
4 | – | Cn1nc(C(F)(F)C(F)(F)F)c(C(F)(F)F)c1-c1cc(-c2ccc(Cl)c(C(=O)NC3CSC3)c2)no1 [Iap-4] | 4.37 | – | 100 | 80 | 100 | 100 | 100 | – | – | – | – | – | – | 90 | 100 | –
5 | – | Cn1nc(C(F)(F)C(F)(F)F)c(C(F)(F)F)c1-c1nc(-c2ccc(Cl)c(C(=O)NC3(C#N)CC3)c2)no1 [Ibf-2] | 4.14 | 100 | 100 | 100 | 100 | 100 | 100 | – | – | – | – | – | – | – | 80 | –
6 | – | Cn1nc(C(F)(F)C(F)(F)F)c(C(F)(F)F)c1-c1cc(-c2ccc(Cl)c(C(=O)NCC(F)(F)F)c2)no1 [Iap-2] | 4.42 | 100 | 100 | – | 100 | 100 | – | – | – | 100 | – | – | 100 | – | – | 80
7 | – | CCn1nc(-c2c(C(F)(F)F)c(C(F)(F)C(F)(F)F)nn2C)nc1-c1ccc(Cl)c(C(=O)NC2CC2)c1 [Ibh-4] | 3.99 | 90 | 100 | – | 90 | 100 | 100 | – | – | – | – | – | – | 100 | – | –
8 | – | Cn1nc(-c2c(C(F)(F)F)c(C(F)(F)C(F)(F)F)nn2C)nc1-c1ccc(Cl)c(C(=O)NCC(F)(F)F)c1 [Ibh-3] | 3.99 | – | – | 100 | – | – | 100 | – | – | – | – | – | – | 90 | – | –
9 | – | Cn1nc(C(F)(F)C(F)(F)F)c(C(F)(F)F)c1-c1cc(-c2ccc(Cl)c(C(=O)NC3(C(F)(F)F)CC3)c2)no1 [Iap-5] | 4.55 | 100 | 100 | – | 100 | 100 | – | – | – | – | – | – | 100 | – | – | –
10 | – | Cn1nc(C(F)(F)C(F)(F)F)c(C(F)(F)F)c1-c1cc(-c2ccc(Cl)c(C(=O)NC3(C#N)CC3)c2)no1 [Iap-3] | 3.96 | 100 | 100 | – | 100 | 100 | – | 100 | – | 100 | – | 100 | 100 | – | 100 | –
11 | – | Cn1nc(C(F)(F)C(F)(F)F)c(C(F)(F)F)c1-c1ccc(-c2ccc(Cl)c(C(=O)NC3(C#N)CC3)c2)o1 [Iaa-1] | 4.08 | 100 | 100 | – | 100 | 100 | – | – | – | 100 | – | – | 100 | – | – | –
12 | – | Cn1nc(C(F)(F)C(F)(F)F)c(C(F)(F)F)c1-c1coc(-c2ccc(Cl)c(C(=O)NC3CC3)c2)c1 [Iac-3] | 4.08 | 100 | 100 | – | 100 | 100 | – | – | 100 | 100 | 100 | 100 | 100 | – | – | –
13 | – | Cn1nc(C(F)(F)C(F)(F)F)c(C(F)(F)F)c1-c1noc(-c2ccc(Cl)c(C(=O)NC3(C#N)CC3)c2)n1 [Ibe-4] | 4.01 | 100 | 100 | 100 | 100 | 100 | 100 | – | – | – | – | – | – | 90 | – | –
